Nine compounds from DBAASP can be followed below.

≈ marks a conversion by molar mass, not a printed value.

Some test systems named below: Candida krusei ATCC 6258; Bacillus subtilis PS832; Escherichia coli DL7; Pseudomonas aeruginosa; Staphylococcus aureus; Streptococcus agalactiae; Vibrio alginolyticus; Vibrio vulnificus 204; Vibrio cholerae non-O139; Vibrio cholerae non-O1.
Assay in all cases: ≥ marks a high value that may be exact or a test limit, other limits are often not marked, values filed in µg/mL are converted to µM
In experiment [1] the test system is Staphylococcus aureus ATCC 25023.
The test system of experiment [2] is Candida albicans ATCC 200955.
Experiment [3] relates to Enterococcus faecium ATCC 700221.
In experiment [4] the test system is Escherichia coli ATCC 25922.
Experiment [5] has as its system Pseudomonas aeruginosa ATCC 27853.
For experiment [6], the system named is Staphylococcus aureus ATCC 33591.
Experiment [7] has as its system Candida albicans ATCC 90028.
Experiment [8] concerns Candida parapsilosis ATCC 22019.
Experiment [9] deals with Cryptococcus neoformans ATCC 90012.
Experiment [10] deals with Staphylococcus aureus ATCC 25923.
Experiment [11] concerns Escherichia coli ATCC 35218.
Experiment [12] has as its system Staphylococcus aureus ATCC 25325.
The subject of experiment [13] is Klebsiella aerogenes ATCC 13048.
The test system of experiment [14] is Staphylococcus epidermidis ATCC 12228.
In experiment [15] the test system is Micrococcus luteus BCRC 11034.
Experiment [16] deals with Staphylococcus aureus BCRC 10780.
The subject of experiment [17] is Staphylococcus sp. BCRC 10451.
The test system of experiment [18] is Streptococcus pneumoniae BCRC 10794.
The test system of experiment [19] is Vibrio harveyi BCRC 13812.
In experiment [20] the test system is Cronobacter sakazakii DPC 6440.
The subject of experiment [21] is Listeria monocytogenes LO28.
The subject of experiment [22] is Salmonella enterica subsp. enterica serovar Typhi DMST 22842.
For experiment [23], the system named is Bacillus cereus PTCC 1247.
The subject of experiment [24] is Escherichia coli HP101BA 7601c.
The test system of experiment [25] is Klebsiella pneumoniae PTCC 1388.
The test system of experiment [26] is Staphylococcus aureus PTCC 1431.

Regarding `CC(C)C[C@H](NC(=O)[C@H](CCCN=C(N)N)NC(=O)[C@H](CC(C)C)NC(=O)[C@H](CC(C)C)NC(=O)[C@H](CC(C)C)NC(=O)[C@H](CC(C)C)NC(=O)[C@H](CC(C)C)NC(=O)[C@H](CCCCN)NC(=O)[C@H](CCCN=C(N)N)NC(=O)[C@@H](N)CC(C)C)C(N)=O` [LRKLLLLLRL], in experiment [1], the MIC (commonly the smallest concentration in the dilution series that meets the test's criterion for growth inhibition) came to 25.6 µM (≈ 32 µg/mL).

For the compound `CC[C@H](C)[C@H](NC(=O)[C@H](CCCCN)NC(=O)[C@H](CCCCN)NC(=O)[C@H](CC(C)C)NC(=O)[C@H](CC(C)C)NC(=O)CN)C(=O)N[C@@H](CCCCN)C(=O)N[C@@H](CCCCN)C(=O)N[C@@H](CC(C)C)C(=O)N[C@@H](CC(C)C)C(N)=O` [GLLKKIKKLL], the MIC in experiment [2] is 28.4 µM (≈ 32.7 µg/mL); in experiment [3] it was not below 56.9 µM; in experiment [4] it was 25 µM (≈ 28.8 µg/mL); in [5], 28.4 µM (≈ 32.7 µg/mL); in experiment [6], not below 256 µM.

Consider `CC[C@H](C)[C@H](NC(=O)[C@H](Cc1ccccc1)NC(=O)[C@H](CC(N)=O)NC(=O)[C@H](CCCCN)NC(=O)[C@H](C)NC(=O)[C@@H](NC(=O)[C@H](CC(N)=O)NC(=O)[C@H](Cc1ccccc1)NC(=O)[C@H](C)NC(=O)[C@H](C)NC(=O)[C@H](CCCCN)NC(=O)CNC(=O)[C@@H](NC(=O)[C@H](CCCCN)NC(=O)[C@H](CCCCN)NC(=O)[C@H](C)NC(=O)[C@@H](NC(=O)[C@H](CC(=O)O)NC(=O)[C@H](CC(C)C)NC(=O)[C@H](Cc1c[nH]c2ccccc12)NC(=O)CN)C(C)C)[C@@H](C)CC)C(C)C)C(N)=O` [GWLDVAKKIGKAAFNVAKNFI], for which the MIC in experiment [7] was found to be 8 µM (≈ 18.3 µg/mL); in the experiment with Candida krusei ATCC 6258, 8 µM (≈ 18.3 µg/mL); in [8] it was 4 µM (≈ 9.16 µg/mL); in experiment [9] it was 8 µM (≈ 18.3 µg/mL); in experiment [4], 4 µM (≈ 9.16 µg/mL); in [5], 8 µM (≈ 18.3 µg/mL). The same compound gave an MIC in experiment [10] of 1 µM (≈ 2.29 µg/mL).

With `CC(C)C[C@H](NC(=O)[C@H](C)NC(=O)[C@H](C)NC(=O)[C@H](CCCCN)NC(=O)CNC(=O)[C@@H](NC(=O)[C@H](Cc1cnc[nH]1)NC(=O)[C@H](CCCCN)NC(=O)CNC(=O)[C@@H](NC(=O)[C@H](Cc1cnc[nH]1)NC(=O)[C@H](C)NC(=O)[C@H](C)NC(=O)[C@H](CCCCN)NC(=O)[C@@H](N)CCCCN)C(C)C)C(C)C)C(=O)O` [KKAAHVGKHVGKAAL], the MIC was 16.1 µM (≈ 24.4 µg/mL) in experiment [11], 29.5 µM (≈ 44.7 µg/mL) in [5] and 20.2 µM (≈ 30.6 µg/mL) in experiment [12].

Regarding `CC[C@H](C)[C@H](NC(=O)[C@H](CCCN=C(N)N)NC(=O)[C@H](CCCCN)NC(=O)[C@H](CC(C)C)NC(=O)[C@H](CC(C)C)NC(=O)CNC(=O)[C@H](Cc1cnc[nH]1)NC(=O)CNC(=O)CN)C(=O)N[C@@H](CCCCN)C(=O)N[C@H](C(=O)N[C@@H](CC(C)C)C(=O)N[C@@H](CC(C)C)C(N)=O)[C@@H](C)O` [GGHGLLKRIKTLL], the MIC with Bacillus subtilis PS832 was 2 µM (≈ 2.81 µg/mL); in the experiment on Escherichia coli DL7, 4 µM (≈ 5.62 µg/mL); in experiment [13], not below 32 µM; in [14], 8 µM (≈ 11.2 µg/mL).

`CC[C@H](C)[C@H](NC(=O)[C@H](CCCCN)NC(=O)[C@@H]1CCCN1C(=O)[C@@H](NC(=O)[C@H](CC(C)C)NC(=O)[C@H](C)NC(=O)[C@H](Cc1ccccc1)NC(=O)[C@H](Cc1ccccc1)NC(=O)CNC(C)=O)[C@@H](C)CC)C(=O)N[C@H](C(=O)N[C@@H](CO)C(=O)N[C@@H](CO)C(=O)N1CCC[C@H]1C(=O)N[C@@H](CC(C)C)C(=O)N[C@@H](Cc1ccccc1)C(=O)N[C@@H](CCCCN)C(=O)N[C@H](C(=O)N[C@@H](CC(C)C)C(=O)N[C@@H](CC(C)C)C(=O)N[C@@H](CO)C(=O)N[C@@H](C)C(=O)N[C@H](C(=O)NCC(=O)N[C@@H](CO)C(=O)N[C@@H](C)C(=O)N[C@@H](CC(C)C)C(=O)N[C@@H](CO)C(N)=O)C(C)C)[C@@H](C)O)[C@@H](C)CC` [GFFALIPKIISSPLFKTLLSAVGSALS]: the MIC came out at 9 µM (≈ 25.4 µg/mL) in [15]; 4.5 µM (≈ 12.7 µg/mL) with Pseudomonas aeruginosa; 18 µM (≈ 50.7 µg/mL) in experiment [16]; 4.5 µM (≈ 12.7 µg/mL) in the experiment with Staphylococcus aureus; 2.25 µM (≈ 6.34 µg/mL) in [17]; 18 µM (≈ 50.7 µg/mL) in the experiment with Streptococcus agalactiae. In addition, the MIC stood at 18 µM (≈ 50.7 µg/mL) in [18], 4.5 µM (≈ 12.7 µg/mL) in the experiment on Vibrio alginolyticus, 4.5 µM (≈ 12.7 µg/mL) in [19] and 18 µM (≈ 50.7 µg/mL) against Vibrio vulnificus 204.

As to `CC[C@H](C)[C@H](NC(=O)[C@@H](N)Cc1c[nH]c2ccccc12)C(=O)N[C@@H](CCC(N)=O)C(=O)N1CCC[C@H]1C(=O)N[C@@H](CCCCN)C(=O)N[C@H](C(=O)N[C@@H](CCCCN)C(=O)N[C@H](C(=O)N[C@H](C(=O)N1CCC[C@H]1C(=O)N[C@@H](Cc1ccc(O)cc1)C(=O)N[C@@H](C)C(=O)N[C@@H](CCCN=C(N)N)C(=O)N[C@@H](Cc1ccc(O)cc1)C(=O)N[C@@H](CC(C)C)C(=O)O)[C@@H](C)CC)C(C)C)[C@@H](C)O` [WIQPKTKVIPYARYL], the minimum inhibitory concentration (MIC) in [20] is not below 39.1 µM; in experiment [21], 19.5 µM (≈ 36.6 µg/mL).

Take `NC(=O)[C@H](Cc1c[nH]c2ccccc12)NC(=O)[C@H](Cc1c[nH]c2ccccc12)NC(=O)[C@H](Cc1c[nH]c2ccccc12)NC(=O)[C@H](CCCN=C(N)N)NC(=O)[C@H](CCCN=C(N)N)NC(=O)[C@H](Cc1c[nH]c2ccccc12)NC(=O)[C@H](Cc1c[nH]c2ccccc12)NC(=O)[C@H](CCCN=C(N)N)NC(=O)[C@H](Cc1c[nH]c2ccccc12)NC(=O)[C@H](Cc1c[nH]c2ccccc12)NC(=O)[C@@H](N)CCCN=C(N)N` [RWWRWWRRWWW]: the MIC in experiment [22] was not below 46.8 µM; in experiment [10], more than 46.8 µM; in experiment [14], more than 46.8 µM; against Vibrio cholerae non-O139, not below 46.8 µM; with Vibrio cholerae non-O1 it was not below 46.8 µM.

Regarding `CC[C@H](C)[C@H](NC(=O)[C@H](Cc1cnc[nH]1)NC(=O)[C@H](CCC(N)=O)NC(=O)[C@H](CCSC)NC(=O)[C@H](CCSC)NC(=O)[C@H](CCC(=O)O)NC(=O)[C@H](C)NC(=O)[C@H](C)NC(=O)[C@@H](NC(=O)[C@H](CO)NC(=O)[C@H](C)NC(=O)[C@@H](NC(=O)[C@H](Cc1ccccc1)NC(=O)[C@@H]1CCCN1C(=O)[C@@H](NC(=O)[C@@H](N)C(C)C)[C@@H](C)CC)C(C)C)C(C)C)C(=O)N[C@@H](Cc1ccccc1)C(=O)N[C@H]1CSSC[C@@H](C(=O)O)NC(=O)[C@H](CCCCN)NC(=O)[C@H](CCCN=C(N)N)NC(=O)[C@H](CO)NC(=O)[C@H](C)NC(=O)[C@H](C)NC1=O` [VIPFVASVAAEMMQHIFCAASRKC], the MIC in experiment [23] amounted to 4.6 µM (≈ 12 µg/mL); in experiment [24] it was 3.06 µM (≈ 7.99 µg/mL); in experiment [25] it was 5.36 µM (≈ 14 µg/mL); in experiment [26], 6.51 µM (≈ 17 µg/mL).
